What all share (assay type): biochemical
One experiment concerns the target T1, MMP-1 (Homo sapiens, UniProt P03956).
T1 construct: made in house; host or cells: MMP-1-transfected HT-1080 cells (spent media)
T1 sequence (P03956 100-469): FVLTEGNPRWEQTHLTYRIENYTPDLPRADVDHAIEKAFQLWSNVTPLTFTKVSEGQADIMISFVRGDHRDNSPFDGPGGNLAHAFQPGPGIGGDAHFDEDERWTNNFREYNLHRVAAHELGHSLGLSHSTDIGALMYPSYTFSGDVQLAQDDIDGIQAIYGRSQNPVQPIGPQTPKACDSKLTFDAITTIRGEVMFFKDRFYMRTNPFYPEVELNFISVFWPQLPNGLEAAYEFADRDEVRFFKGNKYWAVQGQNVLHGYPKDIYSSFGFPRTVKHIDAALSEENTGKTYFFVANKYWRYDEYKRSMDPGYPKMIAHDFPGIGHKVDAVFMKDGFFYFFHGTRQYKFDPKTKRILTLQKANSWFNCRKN
Briefly: MMP-1 inhibition (in vitro Ki). The conditions noted are these: Table 8; read-out: MMP-1 Ki.

The target in another experiment is T2, MMP-2 (Homo sapiens, UniProt P08253).
T2 construct: made in house; host or cells: MMP-2-transfected p2AHT2 cells
T2 sequence (P08253 110-660): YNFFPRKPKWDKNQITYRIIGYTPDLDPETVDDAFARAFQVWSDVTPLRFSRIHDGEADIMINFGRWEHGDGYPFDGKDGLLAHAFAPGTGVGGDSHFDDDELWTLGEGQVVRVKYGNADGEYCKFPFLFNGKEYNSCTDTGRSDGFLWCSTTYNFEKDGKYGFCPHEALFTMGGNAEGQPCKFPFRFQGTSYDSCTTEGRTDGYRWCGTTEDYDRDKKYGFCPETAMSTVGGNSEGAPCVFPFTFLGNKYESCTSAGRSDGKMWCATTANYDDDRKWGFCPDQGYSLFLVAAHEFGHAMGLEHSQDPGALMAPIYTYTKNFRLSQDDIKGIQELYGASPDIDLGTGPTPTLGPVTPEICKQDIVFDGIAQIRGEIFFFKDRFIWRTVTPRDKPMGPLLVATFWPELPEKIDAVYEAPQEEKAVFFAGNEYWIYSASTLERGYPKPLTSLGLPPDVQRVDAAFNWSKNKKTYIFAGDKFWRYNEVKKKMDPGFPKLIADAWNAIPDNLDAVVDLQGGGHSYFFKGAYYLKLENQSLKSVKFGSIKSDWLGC
The experiment can be described thus: MMP-2 inhibition (in vitro Ki). The conditions noted are these: Table 8; read-out: MMP-2 Ki.

Another experiment concerns the target T3, MMP-9 (Homo sapiens, UniProt P14780).
T3 construct: made in house; host or cells: MMP-9-transfected HT1080 cells (spent media)
Briefly: MMP-9 inhibition (in vitro Ki). The conditions noted are these: Table 8; read-out: MMP-9 Ki.

For another experiment, the target named is T4, MMP-13 (Homo sapiens, UniProt P45452).
T4 construct: made in house; host or cells: baculovirus / insect cells
The experiment can be described thus: MMP-13 inhibition (in vitro Ki). As to conditions: Table 8; read-out: MMP-13 Ki.

Another experiment concerns the target T5, MMP-14 (Homo sapiens, UniProt P50281).
T5 construct: The catalytic domain enzyme was expressed in E. coli inclusion bodies, solubilized in urea; made in house
The experiment can be described thus: MMP-14 inhibition (in vitro Ki). As to conditions: Table 8; read-out: MMP-14 Ki.

T3 sequence (P14780 107-707 limits assumed): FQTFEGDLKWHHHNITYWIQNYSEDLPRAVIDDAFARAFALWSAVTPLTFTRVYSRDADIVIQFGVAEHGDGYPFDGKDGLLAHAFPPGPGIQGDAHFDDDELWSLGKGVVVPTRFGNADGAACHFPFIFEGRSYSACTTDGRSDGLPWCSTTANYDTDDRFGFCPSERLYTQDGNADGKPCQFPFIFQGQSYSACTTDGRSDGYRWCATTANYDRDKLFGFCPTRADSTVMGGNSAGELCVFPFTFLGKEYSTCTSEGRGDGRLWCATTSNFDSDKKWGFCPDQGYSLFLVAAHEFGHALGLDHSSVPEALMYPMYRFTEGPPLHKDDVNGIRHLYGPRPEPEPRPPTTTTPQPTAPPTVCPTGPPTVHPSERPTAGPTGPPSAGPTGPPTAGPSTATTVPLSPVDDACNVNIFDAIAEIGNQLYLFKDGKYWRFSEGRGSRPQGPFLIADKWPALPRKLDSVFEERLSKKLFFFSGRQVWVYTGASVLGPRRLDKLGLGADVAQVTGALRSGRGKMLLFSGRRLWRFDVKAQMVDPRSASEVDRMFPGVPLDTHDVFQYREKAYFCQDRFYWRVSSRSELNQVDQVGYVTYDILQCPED

As for `O=C(NO)C1(S(=O)(=O)N2CCC(CCCOCCCC(F)(F)F)CC2)CCOCC1` [Example A36J], the inhibition constant Ki was greater than 10000 nM at MMP-1; 7.8 nM at MMP-2; 10.3 nM on MMP-9; 4.38 nM at MMP-13; 6550 nM on MMP-14.

In the case of `O=C(NO)C1(S(=O)(=O)N2CCC(CCCCCOCCC(F)(F)F)CC2)CCOCC1` [Example A37, 4-{4-[5-(3,3,3-Trifluoro-propoxy)-pentyl]-piperidine-1-sulfonyl}-tetrahydro-pyran-4-carboxylic Acid Hydroxyamide], the Ki was determined as 6710 nM on MMP-1; 0.97 nM at MMP-2; 0.3 nM at MMP-9; 0.3 nM at MMP-13; 690 nM at MMP-14.

On to `CCOCCCCCC1CCN(S(=O)(=O)C2(C(=O)NO)CCOCC2)CC1` [Example A38, 4-[4-(5-ethoxy-pentyl)-piperidine-1-sulfonyl]-tetrahydro-pyran-4-carboxylic Acid Hydroxyamide], for which the inhibition constant (Ki) on MMP-1 worked out at 4580 nM; at MMP-2, 0.72 nM; on MMP-9, 2.25 nM; at MMP-13, 0.52 nM; at MMP-14 it was 1190 nM.

With `CCCOCCCCC1CCN(S(=O)(=O)C2(C(=O)NO)CCOCC2)CC1` [Example A39, 4-[4-(4-propoxy-butyl)-piperidine-1-sulfonyl]-tetrahydro-pyran-4-carboxylic Acid Hydroxyamide], the inhibitory constant (Ki) at MMP-1 was found to be 1990 nM; on MMP-2 it was 12.5 nM; at MMP-9 it was 10 nM; at MMP-13, 1.99 nM; at MMP-14, 1410 nM.

With `O=C(NO)C1(S(=O)(=O)N2CCC(CCCCOCCCC(F)(F)F)CC2)CCOCC1` [Example A40, 4-{4-[4-(4,4,4-trifluoro-butoxy)-butyl]-piperidine-1-sulfonyl}-tetrahydro-pyran-4-carboxylic Acid Hydroxyamide], the Ki at MMP-1 turned out to be 4260 nM; at MMP-2 it was 6.99 nM; at MMP-9 it was 46.4 nM; on MMP-13, 0.6 nM; at MMP-14, 3420 nM.

On to `CCCCCCOCC1CCN(S(=O)(=O)C2(C(=O)NO)CCOCC2)CC1` [Example A41, 4-(4-hexyloxymethyl-piperidine-1-sulfonyl)-tetrahydro-pyran-4-carboxylic Acid Hydroxyamide], for which the inhibition constant Ki is greater than 10000 nM on MMP-1; 8.38 nM on MMP-2; 1.79 nM on MMP-9; 7.95 nM on MMP-13; 7210 nM at MMP-14.

For the molecule `O=C(NO)C1(S(=O)(=O)N2CCC(COCCCC(F)(F)F)CC2)CCOCC1` [Example A42, 4-[4-(4,4,4-trifluoro-butoxymethyl)-piperidine-1-sulfonyl]-tetrahydro-pyran-4-carboxylic Acid Hydroxyamide], the Ki is greater than 10000 nM on MMP-1; 22 nM on MMP-2; 28.6 nM at MMP-9; 33.3 nM at MMP-13; greater than 10000 nM on MMP-14.

As for `O=C(NO)C1(S(=O)(=O)N2CCC(CCCCCC(F)(F)F)CC2)CCOCC1` [Example A43, 4-[4-(6,6,6-Trifluoro-hexyl)-piperidine-1-sulfonyl]-tetrahydro-pyran-4-carboxylic Acid Hydroxyamide], the Ki at MMP-1 was determined as 3100 nM; at MMP-2, 0.33 nM; on MMP-9, 0.19 nM; on MMP-13, 0.58 nM; at MMP-14, 757 nM.

With `CCCCOCCC1CCN(S(=O)(=O)C2(C(=O)NO)CCOCC2)CC1` [Example A44, 4-[4-(2-butoxy-ethyl)-piperidine-1-sulfonyl]-tetrahydro-pyran-4-carboxylic Acid Hydroxyamide], the Ki at MMP-1 is greater than 10000 nM; on MMP-2 it was 27.3 nM; at MMP-9, 12.5 nM; at MMP-13, 38.2 nM; at MMP-14 it was greater than 10000 nM.

These data come from patent publication US20050209278A1, “Piperidinyl- and piperazinyl-sulfonylmethyl hydroxamic acids and their use as protease inhibitors” (priority 2002, published 2005).
